Several values for one entry are separate records, joined by “and”; a condition that tells them apart may be missing. Identical values can stand only once.
The compounds below were run against T1, Tyrosine-protein kinase SYK [355-635] (Homo sapiens, UniProt P43405) (assay: SYK assay_HTRF).
T1 construct: 355-635
O=S1(=O)NCc2ccc(Nc3ncc(F)c(N(CCCO)c4cccc5[nH]ncc45)n3)cc21 [GTC000230A] showed an IC50 of 1.46 nM. With CCN(c1nc(Nc2ccc3c(c2)S(=O)(=O)N(CC2CC2)C3)ncc1F)c1cccc2[nH]ncc12 [GTC000330A] the IC50 was 36.2 nM and 19.4 nM. For COCCCN(c1nc(Nc2ccc3c(C)nn(CCCO)c3c2)ncc1F)c1cccc2[nH]ncc12 [GTC000279A], the IC50 was 7.52 nM. Compound NC(=O)c1cccc(Nc2nccc(N(CCO)c3cccc4[nH]ncc34)n2)c1 [GTC000281A] has an IC50 of 7.19 nM. For Cc1noc(NS(=O)(=O)Cc2ccc(Nc3nccc(Nc4cccc5[nH]ncc45)n3)cc2)c1C [GTC000200A], the IC50 was 887 nM and 1810 nM. With CS(=O)(=O)Nc1ccc(Nc2nccc(Nc3cccc4[nH]ncc34)n2)cc1 [GTC000217A] the IC50 was 414 nM. With CCN(c1nc(Nc2cccc(N3CCN(C)CC3)c2)ncc1F)c1cccc2[nH]ncc12 [GTC000331A] the IC50 was 23.8 nM. With CCN(C(C)=O)c1ccc(Nc2nccc(Nc3cccc4[nH]ncc34)n2)cc1 [GTC000172A] the IC50 was 589 nM. In the case of COC(=O)CCCN(c1ccnc(Nc2ccc3c(c2)S(=O)(=O)NC3)n1)c1cccc2[nH]ncc12 [GTC000297A], the IC50 is reported as 6.89 nM and 13.9 nM and 13.1 nM. In the case of O=C1NC(=O)c2cc(Nc3nccc(Nc4cccc5[nH]ncc45)n3)ccc21 [GTC000171A], the IC50 is reported as 506 nM. O=C(O)c1cccc(Nc2nccc(Nc3cccc4[nH]ncc34)n2)c1 [GTC000119A] was tested, and the IC50 was 207 nM. Cc1nc2ccc(Nc3nccc(Nc4cccc5[nH]ncc45)n3)cc2s1 [GTC000123A] was tested, and the IC50 was 60.1 nM and 88.5 nM. For CCN(CC)CCCN(c1ccnc(Nc2cccc(S(N)(=O)=O)c2)n1)c1cccc2[nH]ncc12 [GTC000329A], the IC50 was 23.2 nM and 12.7 nM and 55.7 nM and 25.3 nM. Work on CCN(c1nc(Nc2ccc3cnn(C)c3c2)ncc1F)c1cccc2[nH]ncc12 [GTC000255A] yielded an IC50 of 4.63 nM. CCN(c1nc(Nc2ccc(C(N)=O)cc2)ncc1F)c1cccc2[nH]ncc12 [GTC000260A] showed an IC50 of 5.48 nM. Cc1nc(NS(=O)(=O)Cc2ccc(Nc3nccc(Nc4cccc5[nH]ncc45)n3)cc2)sc1C [GTC000201A] was tested, and the IC50 was 1100 nM. O=S1(=O)NCc2ccc(Nc3nccc(N(CCO)c4cccc5[nH]ncc45)n3)cc21 [GTC000223A] was tested, and the IC50 was 3.45 nM. Work on O=S(=O)(Cc1ccc(Nc2nccc(Nc3cccc4[nH]ncc34)n2)cc1)NCCCO [GTC000203A] yielded an IC50 of 746 nM. In the case of CCCN(c1nc(Nc2ccc3c(c2)S(=O)(=O)NC3)ncc1F)c1cccc2[nH]ncc12 [GTC000243A], the IC50 is reported as 4.09 nM and 3.13 nM and 3.56 nM and 9.55 nM and 5 nM and 4.1 nM and 3.04 nM and 3.52 nM and 5.97 nM. In the case of CNS(=O)(=O)c1ccc(Nc2nccc(Nc3cccc4[nH]ncc34)n2)cc1 [GTC000184A], the IC50 is reported as 493 nM and 443 nM and 161 nM. With Cc1nc2cc(Nc3nccc(Nc4cccc5[nH]ncc45)n3)ccc2s1 [GTC000168A] the IC50 was 468 nM. For CC(=O)N1CCC(CN(c2ccnc(Nc3ccc4[nH]c(=O)[nH]c4c3)n2)c2cccc3[nH]ncc23)CC1 [GTC000339A], the IC50 was 43.1 nM and 26.8 nM. NS(=O)(=O)c1cccc(Nc2nccc(N(CC(F)(F)F)c3cccc4[nH]ncc34)n2)c1 [GTC000365A] was tested, and the IC50 was 98.2 nM. Compound CCN(c1nc(Nc2ccc(C(=O)N3CCN(C)CC3)cc2)ncc1F)c1cccc2[nH]ncc12 [GTC000372A] has an IC50 of 244 nM. COc1cc(Nc2nccc(Nc3cccc4[nH]ncc34)n2)cc(OC)c1 [GTC000118A] was tested, and the IC50 was 35.3 nM and 67.1 nM and 93.5 nM and 203 nM. COC(=O)c1ccc(Nc2nccc(Nc3cccc4[nH]ncc34)n2)cc1 [GTC000174A] was tested, and the IC50 was 175 nM and 209 nM. c1cc(Nc2ccnc(Nc3ccc4ncsc4c3)n2)c2cn[nH]c2c1 [GTC000122A] was tested, and the IC50 was 40 nM and 53.5 nM. For Cc1ncoc1-c1cccc(Nc2nccc(N(CCCO)c3cccc4[nH]ncc34)n2)c1 [GTC000224A], the IC50 was 11.1 nM. COCCCN(c1nc(Nc2cccc(S(C)(=O)=O)c2)ncc1F)c1cccc2[nH]ncc12 [GTC000347A] gave an IC50 of 33.3 nM. COCCCN(c1nc(Nc2ccc3c(cnn3C)c2)ncc1F)c1cccc2[nH]ncc12 [GTC000294A] was tested, and the IC50 was 10.2 nM. In the case of COCCN(c1ccnc(Nc2cccc(S(N)(=O)=O)c2)n1)c1cccc2[nH]ncc12 [GTC000335A], the IC50 is reported as 22.4 nM. O=S(=O)(c1cccc(Nc2nccc(Nc3cccc4[nH]ncc34)n2)c1)N1CCCCC1 [GTC000179A] was tested, and the IC50 was 4160 nM. Work on COCCCN(c1ccnc(Nc2ccc3c(c2)COC(=O)N3)n1)c1cccc2[nH]ncc12 [GTC000238A] yielded an IC50 of 2.92 nM.

From BindingDB's records for doi:10.7270/Q2CV4GM1 (D3R/Abbott, 2015)
